Test [1] relates to German cockroaches. The test is described as follows: Topical application toxicity test: mortality of adult German cockroaches 24 hours after treatment. Type of test: in vivo, Blattella germanica (German cockroach). Here is the method:
Toxicity evaluations were performed on 7-14 day old adult male and female German cockroaches (SCJ Strain, S.C. Johnson & Son, Racine, Wis.). Approximately 12 cockroaches were transferred to individual 100×20 mm polystyrene Petri dishes and anesthetized with a 15-25 second exposure to carbon dioxide. The inside edge of each Petri dish was lightly coated with mineral oil plus petroleum jelly in a 1:3 (wt/wt) ratio to minimize escape. Anesthetized cockroaches were positioned with their ventral side up, and a 1 μl drop of the diluted test composition was applied to the area between the meso- and metathoracic legs using a Rainin L-10, 10 μl capacity pipette (Rainin Instrument, LLC, Oakland, Calif.). Five replications of 12 male cockroaches were done for each test composition. Separate tests were done using female cockroaches. Results were evaluated at 24 hours following treatment. Cockroaches were scored as either alive (dorsal side up, active movement when abdomen prodded with dissecting probe) or moribund/dead (dorsal side up and no movement when abdomen prodded or ventral side up and insect unable to right itself).
The compositions comprising alcohol and/or mineral oil are described in Table 13.
In this example, the effectiveness of compositions comprising various compounds and/or mineral oil at killing cockroaches was tested.

Test [2] deals with cockroaches. The test is described as follows: Dose-response mortality test with probit analysis to estimate LD50 and LD10 for cockroaches. Format: in vivo, cockroach. Here is the method: In this example, various mineral oils and alcohols were tested to determine, for cockroaches, the LD50 and LD10 for each.
PD23 and PD28 mineral oils were obtained from Sonneborn LLC, Mahwah, N.J. The physical properties of these oils are shown in Table 11. Each mineral oil was tested to determine the LD50 and LD10 (Table 12).
The tested alcohols were obtained from Sigma-Aldrich Corp., St. Louis, Mo. Each alcohol was tested to determine the LD50 and LD10 (Table 12).

Setting [3] is: Table 14, composite data, amounts as in label.

“And” between values parts separate entries of the source, which are not always exact repeats. Equal entries are not always repeated.

With `CCC(C)O` (stereo not drawn) [Composition 2-butanol, 2-butanol], the “# dead at 24 h” value in test [1] (Table 13, per replicate (10-16 treated), amounts as in label, listed as 2-butanol (0.8 mg)) is 0 (2×) and 1; in test [1] (setting [3]), 1. The “Proportion dead at 24 h” value in test [1] (Table 13, per replicate, amounts as in label, listed as 2-butanol (0.8 mg)) was 0.000 (2×) and 0.083; in test [1] (Table 14, composite data) it was 0.026. For the same compound, in test [2], the “LD10 mg/insect (95% CI)” value is 0.881 mg/insect. Further, the “LD50 mg/insect (95% CI)” value in test [2] is 1.188 mg/insect.

Turning to `CCCCCCCO` [Composition 1-heptanol, 1-heptanol], the “synergy with Exxsol D95 mineral oil (in words)” value in test [1] (cockroaches, 24 h) is “significant synergy”. For the same compound, in test [2], the “LD10 mg/insect (95% CI)” value is 0.462 mg/insect and the “LD50 mg/insect (95% CI)” value was 0.791 mg/insect.

With `CCCCO` [Composition 1-butanol, 1-butanol], the “# dead at 24 h” value in test [1] (Table 13, per replicate (10-16 treated), amounts as in label, listed as 1-butanol (0.8 mg)) is 0 (2×) and 1; in test [1] (setting [3]), 1. The “Proportion dead at 24 h” value in test [1] (Table 13, per replicate, amounts as in label, listed as 1-butanol (0.8 mg)) was 0.000 (2×) and 0.100; in test [1] (Table 14, composite data), 0.029. The “LD10 mg/insect (95% CI)” value in test [2] is recorded as 0.877 mg/insect. The “LD50 mg/insect (95% CI)” value in test [2] is on record as 1.018 mg/insect.

Source of the values: patent US20090258889A1, “PESTICIDAL COMPOSITIONS” (Whitmire Micro-Gen Research Laboratories, Inc., priority 2008, published 2009).
